For eleven compounds, inhibition and IC50 results are on record in patent US10590106B2, “Certain chemical entities, compositions, and methods” (NeuPharma, Inc., priority 2012, dated 2020).

SMILES strings stand for the structures.

One test has as its target BRAF V600E (Homo sapiens (Human), UniProt P15056, V600E). The experiment in a line: Inhibitory activity against kinase BRAF V600E, Z'-LYTE method (Invitrogen). The following applies: 1 μM compound; read-out: Inhibition (% inhibition at 1 μM) against BRAF V600E. It is filed as biochemical. The protocol: Inhibitory activities Inhibitory activities of compounds against BRAF, and BRAF V600E were measured by Invitrogen using Z′-LYTE® Method as briefly described in the following. 4× Test compounds are dissolved in 1% DMSO. […] ATP solutions are diluted to a 4×ATP working concentration in Kinase Buffer (50 mM HEPES pH 7.5, 0.01% BRIJ-35, 10 mM MgCl2, 1 mM EGTA). Reaction started by 30-second shaking of mixture consisting of 2.5 μL 4× test compound, […] and 2.5 μL 4×ATP Solution on Bar-coded Corning, low volume NBS, black 384-well plate (Corning Cat. #3676). Then the mixture was incubated for 60-minute at room temperature for the kinase reaction, followed by addition of 5 μL of a 1:1024 dilution of development reagent A and 30-second plate shake. The mixture was then incubated for another 60-minute at room temperature for development reaction. Fluorescence was read by plate reader. IC50 was calculated by plotting the concentration of compound vs the percentage of inhibition in treated wells using GraphPad Prism 5.
Table 2 and 3 show % inhibition at 1 μM of several compounds of the invention against BRAF and BRAF V600E, respectively, using Z′-LYTE® method.
The scale utilized in Table 4 is as follows: +++ less than 100 nM; and ++ greater than 100 nM.

A further test relates to A549 cells. Kind of test: Inhibition of cancer cell growth, MTT or MTS assay, A549. It is filed as cell-based. Particulars: Homo sapiens, 72 h incubation. The method, then:
(§1) Inhibition of cell growth by compounds was measured using MTT or MTS assay. Tumor cell lines were purchased from ATCC (American Type Culture Collection, Manassas, Va.). All cell lines were maintained in RPMI 1640 (Hyclone) supplemented with 10% fetal bovine serum (FBS, Hyclone), glutamine (2 mM, Hyclone), and antibiotics (penicillin 100 U/mL and streptomycin 50 μg/mL) at 37° C. in a humidified atmosphere of 5% CO2 in air. Taxol (as a positive control, Sigma) and compounds were dissolved in DMSO (Sigma), and the final concentration of DMSO in the medium was 1%. Tumor cells were plated in 96-well plates at densities of about 2000 (A375) or 4000 (A549 and Colo205) cells/well of a 96-well plate and allowed to adhere/grow for 24 h. They were then treated with various concentrations of drug and incubated for 72 h. For MTT method, medium was then removed by inverting and tapping the plates. 100 μL of MTT (0.5 mg/ml) was added to each well followed by an incubated at 37° C. for 4 h. MTT was then removed and 200 μL of DMSO was added to each well, and the ODs at 570 nm were measured after a 5 second shaking cycle in a 96-well spectrophotometer. For MTS method, 20 μL MTS (CellTiter 96 Aqueous One Solution, Promega) was added to each well followed by an incubated at 37° C. for 2-4 h, solutions were then directly put in a 96-well spectrophotometer, and the ODs at 490 nm were measured.
(§2) All concentrations of compounds were tested in triplicate and controls were averaged over 4 wells. IC50 was calculated by plotting the concentration of compound vs the percentage of inhibition in treated wells using GraphPad Prism 5. […] The scale utilized in Tables […] is as follows: +++ less than 1000 nM; ++ between 1000 nM and 5000 nM; and + greater than 5000 nM. The scale utilized in Table 8 is as follows: +++ less than 2000 nM; ++ between 2000 nM and 5000 nM; and + greater than 5000 nM.

The next test deals with A375 cells. Kind of test: Inhibition of cancer cell growth, MTT or MTS assay, A375. Format: cell-based. The following applies: Homo sapiens, A-375; 72 h incubation. The method, then: as §1, §2
Background: Formazan colour is commonly taken as a measure of viable cells.

BRAF V600E, sequence (P15056 whole entry V600E): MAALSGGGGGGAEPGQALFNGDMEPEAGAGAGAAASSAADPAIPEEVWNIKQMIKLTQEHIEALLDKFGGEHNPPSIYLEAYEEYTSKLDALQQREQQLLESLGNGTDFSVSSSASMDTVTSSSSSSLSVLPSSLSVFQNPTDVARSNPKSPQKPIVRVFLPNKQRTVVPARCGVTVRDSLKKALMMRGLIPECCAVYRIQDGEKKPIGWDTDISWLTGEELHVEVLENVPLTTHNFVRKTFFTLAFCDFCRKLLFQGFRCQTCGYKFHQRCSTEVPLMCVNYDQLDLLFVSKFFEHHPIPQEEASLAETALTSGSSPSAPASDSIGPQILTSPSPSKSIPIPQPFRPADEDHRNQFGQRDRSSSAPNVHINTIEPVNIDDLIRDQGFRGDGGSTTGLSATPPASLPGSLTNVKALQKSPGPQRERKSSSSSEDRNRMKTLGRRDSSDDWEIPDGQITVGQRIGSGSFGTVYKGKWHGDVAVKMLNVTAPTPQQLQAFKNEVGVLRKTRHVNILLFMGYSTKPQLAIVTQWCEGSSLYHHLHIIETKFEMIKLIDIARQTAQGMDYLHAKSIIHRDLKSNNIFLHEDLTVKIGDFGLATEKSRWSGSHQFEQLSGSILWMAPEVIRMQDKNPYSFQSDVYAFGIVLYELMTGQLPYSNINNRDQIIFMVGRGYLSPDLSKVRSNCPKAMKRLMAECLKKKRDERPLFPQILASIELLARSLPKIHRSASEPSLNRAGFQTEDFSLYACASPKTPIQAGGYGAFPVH

Usually inhibition stands for the drop in the measured response relative to a control, in per cent. By IC50 is commonly meant the concentration at which inhibition is half-maximal. Read a low IC50 as inhibition by little substance. In the case of `O=C(Nc1cccc(F)c1)Nc1cc(F)cc(Oc2ccc3nccnc3c2)c1` [Compound C020, 1-(3-fluoro-5-(quinoxalin-6-yloxy)phenyl)-3-(3-fluorophenyl)urea], the inhibition at 1 µM on BRAF V600E fell in the range of 70 to 89%. Besides, the 50% inhibitory concentration (IC50) with A549 cells is 2 to 5 µM; in the test on A375 cells it was over 5 µM.

Take `CCCS(=O)(=O)Nc1ccc(Oc2ccc3nccnc3c2)cc1` [Compound C080, N-(4-(quinoxalin-6-yloxy)phenyl)propane-1-sulfonamide]: the half-maximal inhibitory concentration (IC50) in the test on A549 cells and with A375 cells was over 5 µM throughout.

In the case of `O=C(Nc1ccc(Oc2ccc3nccnc3c2)cc1)c1cccc(F)c1` [Compound C077, 3-fluoro-N-(4-(quinoxalin-6-yloxy)phenyl)benzamide], the inhibition at 1 µM at BRAF V600E was under 70%. Also, the IC50 was over 5 µM in the test with A549 cells and 1 to 5 µM in the test on A375 cells.

Take `O=C(Nc1cc(F)cc(Oc2ccc3nccnc3c2)c1)c1cccc(F)c1` [Compound C014, 3-fluoro-N-(3-fluoro-5-(quinoxalin-6-yloxy)phenyl)benzamide]: the inhibition at 1 µM on BRAF V600E was in the range of 70 to 89%. The IC50 with A549 cells and in the test on A375 cells was over 5 µM in each case.

As for `O=C(Nc1ccc(C(F)(F)F)cc1)Nc1ccc(Oc2ccc3nccnc3c2)cc1F` [Compound C097, 1-(2-fluoro-4-(quinoxalin-6-yloxy)phenyl)-3-(4-(trifluoromethyl)phenyl)urea], the inhibition at 1 µM on BRAF V600E was 70 to 89%. Also, the IC50 in the test with A549 cells and in the test with A375 cells was over 5 µM in each case.

Take `CCCS(=O)(=O)Nc1ccc(F)c(Oc2ccc3nccnc3c2)c1` [Compound C013, N-(4-fluoro-3-(quinoxalin-6-yloxy)phenyl)propane-1-sulfonamide]: the IC50 in the test on A549 cells and with A375 cells was over 5 µM throughout.

Consider `O=C(Nc1cc(F)cc(Oc2ccc3nccnc3c2)c1)c1ccc(Cl)c(C(F)(F)F)c1` [Compound C016, 4-chloro-N-(3-fluoro-5-(quinoxalin-6-yloxy)phenyl)-3-(trifluoromethyl)benzamide], for which the inhibition at 1 µM at BRAF V600E was over 89%. Besides, the IC50 in the test on A549 cells and in the test with A375 cells was over 5 µM in each case.

Regarding `CCCS(=O)(=O)Nc1ccc(F)c(Oc2ccc3ncc(N4CCOCC4)nc3c2)c1` [Compound C012, N-(4-fluoro-3-((3-morpholinoquinoxalin-6-yl)oxy)phenyl)propane-1-sulfonamide], the 50% inhibitory concentration (IC50) in the test with A549 cells and in the test on A375 cells was over 5 µM each time.

In the case of `O=C(Nc1ccc(F)c(Oc2ccc3ncc(N4CCOCC4)nc3c2)c1)c1ccc(Cl)c(C(F)(F)F)c1` [Compound C008, 4-chloro-N-(4-fluoro-3-((3-morpholinoquinoxalin-6-yl)oxy)phenyl)-3-(trifluoromethyl)benzamide], the concentration for half-maximal inhibition (IC50) was in the range of 2 to 5 µM in the test on A549 cells and 1 to 5 µM in the test with A375 cells.

Turning to `CCCS(=O)(=O)Nc1cccc(Oc2ccc3nccnc3c2)c1` [Compound C007, N-(3-(quinoxalin-6-yloxy)phenyl)propane-1-sulfonamide], the IC50 in the test on A549 cells and in the test on A375 cells was over 5 µM throughout.

Turning to `O=C(Nc1ccc(Oc2ccc3nccnc3c2)cc1)c1ccc(Cl)c(C(F)(F)F)c1` [Compound C079, 4-chloro-N-(4-(quinoxalin-6-yloxy)phenyl)-3-(trifluoromethyl)benzamide], the inhibition at 1 µM on BRAF V600E is under 70%. Further, the IC50 in the test with A549 cells and with A375 cells was over 5 µM throughout.
